Source: patent US7531318B2, “Screening of agents for activity against ischemic myocardial insults” (priority 2004, dated 2009)

Tests used:
[1] = test system: ILK, Akt (serine 473) in C2C12 myoblasts and embryonic heart explants; experiment: ILK localization/expression and Akt phosphorylation by immunocytochemistry and western blot; format: cell-based
Method: (§1) Immunocytochemistry on collagen gel explants. Paraformaldehyde-fixed explants were permeabilized for 10 min at room temperature with Permeabilize solution (10 mM PIPES pH 6.8; 50 mM NaCl, 0.5% Triton X-100, 300 mM sucrose, 3 mM MgCl2) and rinsed with PBS twice for 5 min each at room temperature. After a series of blocking and rinsing steps, detection antibodies were used and explants rinsed and incubated with equilibration buffer (Anti-Fade kit) for 10 min at room temperature. Explants were scooped to a glass microscope slide, covered and examined by fluorescein microscopy. TUNEL assay was performed using ApopTag plus fluorescein in situ apoptosis detection kit (Intergen Company S7111) as recommended.
Because recruitment of ILK to the focal adhesion complex is important for its activation, the inventors assayed the effects of thymosin β4 on ILK localization and expression. […] Because thymosin β4 sequesters the pool of G-actin monomers, the inventors asked whether the effects on ILK activation were dependent on the role of thymosin β4 in regulating the balance between polymerized F-actin and monomeric G-actin.

[2] = test system: E11.5 cardiac outflow tract explants (myocardial cells); experiment: Collagen gel migration assay, embryonic heart explant: myocardial cell migration and beating; format: cell-based, mouse
Method: Collagen gel migration assay. Outflow tract was dissected from E11.5 wild-type mouse embryos and placed on collagen matrices as previously described (Runyan and Markwald, 1983. After 10 h of attachment explants were incubated in 30 ng per 300 μl thymosin β4 in PBS, PBS alone or thymosin β4 and 100 nM wortmannin. Cultures were carried out for 3-9 days at 37° C. 5% CO2 and fixed in 4% paraformaldehyde in PBS for 10 min at room temperature. Cells were counted for quantification of migration and distance using at least three separate explants under each condition for endothelial migration and eight separate explants for myocardial migration.
as §1
To test the effects of secreted thymosin β4 on cardiac cell migration, the inventors used an embryonic heart explant system designed to assay cell migration and transformation on a collagen gel (Runyan and Markwald, 1983).
To determine whether activation of ILK was necessary for the observed effects of thymosin β4, the inventors used a well-described ILK inhibitor, wortmannin, which inhibits ILK's upstream kinase, phosphatidylinositol-3-OH kinase (PI(3)K) (Delcommenne et al., 1998). Using myocardial cell migration and beating frequency as assays for thymosin β4 activity, the inventors cultured embryonic heart explants as described above in the presence of thymosin β4 with or without wortmannin.

[3] = test system: rat neonatal cardiomyocytes; experiment: Primary neonatal cardiomyocyte culture on laminin-coated glass: migration, survival, beating; format: cell-based
Source text: To test the response of postnatal cardiomyocytes, the inventors cultured primary rat neonatal cardiomyocytes on laminin-coated glass and treated the cells with phosphate-buffered saline (PBS) or thymosin β4.
Primary culture of neonatal cardiomyocytes typically survives for approximately 1 to 2 weeks, with some cells beating for up to 2 weeks when grown on laminin-coated slides in our laboratory. […] In addition, the rate of beating was consistently faster in thymosin-β4-treated neonatal cardiomyocytes (95 versus 50 beats per minute, P<0.02), indicating either a change in cell-cell communication or cell metabolism (FIG. 2M; see also Supplementary FIGS. 1A-I and 2A-M).

PINCH = target: T1, PINCH (Mus musculus, UniProt Q99JW4); experiment: Phage display, ELISA and co-immunoprecipitation of thymosin β4 interacting proteins: PINCH; format: binding
T1 construct: Myc or Flag (co-immunoprecipitation part only); expressed in transfected cells; host or cells: Cos and 10T1/2 cells (co-IP); T7Select10-3 phage displaying mouse embryonic heart cDNA (phage display / ELISA)
Source text: Embryonic T7 phage display cDNA library and phage biopanning. Equal amounts of messenger RNA were isolated and purified from E9.5-E12.5 mouse embryonic hearts by using Straight A's mRNA Isolation System (Novagen). cDNA was synthesized by using T7Select10-3 OrientExpress cDNA Random Primer Cloning System (Novagen). The vector T7Select10-3 was used to display random-primed cDNA at the C terminus of 5-15 phage 10B coat protein molecules. 10^9 plaque-forming units of the T7 phage embryonic heart library (100× of the complexity) in 500 μl of PBST was applied to a column of Affi-gel bound to thymosin β4 to achieve low-stringency biopanning to identify thymosin β4 interacting partners. See Supplementary Methods for details of phage packaging, phage biopanning and ELISA confirmation.
(§2) Co-immunoprecipitation. Cos and 10T1/2 cells were transfected with thymosin β4, PINCH and/or ILK and lysates precipitated with antibodies to each as previously described (Garg et al., 2003). Western blots were performed using anti-ILK polyclonal antibody (Santa Cruz), anti-thymosin β4 polyclonal antibody (Yu et al., 1993) (gift of H. Yin) and anti-Myc or anti-Flag antibody against tagged versions of PINCH.
Thymosin β4 activates ILK and Akt. […]

ILK = target: T2, ILK (Homo sapiens, UniProt Q13418); experiment: Co-immunoprecipitation of thymosin β4 with ILK; format: binding
T2 construct: expressed in transfected cells; host or cells: Cos and 10T1/2 cells
T2 sequence (Q13418 1-452): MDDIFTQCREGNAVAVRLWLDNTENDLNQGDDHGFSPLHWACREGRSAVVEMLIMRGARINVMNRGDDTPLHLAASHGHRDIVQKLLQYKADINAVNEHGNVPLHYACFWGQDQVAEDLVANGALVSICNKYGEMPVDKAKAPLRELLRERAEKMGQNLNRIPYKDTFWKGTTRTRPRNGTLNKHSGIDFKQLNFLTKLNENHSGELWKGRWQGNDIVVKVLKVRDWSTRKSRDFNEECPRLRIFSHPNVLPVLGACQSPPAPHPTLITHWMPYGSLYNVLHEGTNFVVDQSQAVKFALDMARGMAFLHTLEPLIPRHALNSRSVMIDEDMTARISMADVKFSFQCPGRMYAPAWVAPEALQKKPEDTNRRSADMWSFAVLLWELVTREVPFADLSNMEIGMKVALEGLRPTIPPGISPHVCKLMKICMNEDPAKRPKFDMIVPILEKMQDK
Method: as §2
Thymosin β4 activates ILK and Akt. To investigate the potential mechanisms through which thymosin β4 might be influencing cell migration and survival events, the inventors searched for thymosin β4 interacting proteins. The amino terminus of thymosin β4 was fused with affi-gel beads resulting in exposure of the C-terminus, which allowed identification of previously unknown interacting proteins but prohibited association with actin. The inventors synthesized and screened an E9.5-E12.5 mouse heart T7 phage complementary DNA library by phage display, and thymosin-β4-interacting clones were enriched and confirmed by enzyme-linked immunosorbent assay (ELISA, FIG. 3A). […] PINCH and ILK interact directly with one another and indirectly with the actin cytoskeleton as part of a larger complex involved in cell-extracellular matrix interactions known as the focal adhesion complex. […]

[4] = test system: C57BL/6J mice after ligation of the left anterior descending coronary artery; experiment: Myocardial infarction by coronary artery ligation: echocardiography, scar, TUNEL; format: in vivo, mouse
Source text: Immunohistochemistry. Embryonic or adult cardiac tissue was embedded in paraffin and sections used for immunohistochemistry. […] Adult hearts were sectioned at ten equivalent levels from the base of the heart to the apex. Serial sections were used for trichrome sections and reaction with muscle actin, c-kit, Sca-1, Abcg2 and BrdU antibodies and for TUNEL assay (Intergen Company S7111).
(§3) Animals and surgical procedures. Myocardial infarction was produced in 58 male C57BL/6J mice at 16 weeks of age (25-30 g) by ligation of the left anterior descending coronary artery as previously described (Garner et al., 2003). All animal protocols were reviewed and approved by the University of Texas Southwestern Medical Center Institutional Animal Care Advisory Committee and were in compliance with the rules governing animal use as published by the NIH. Twenty-nine of the ligated mice received thymosin β4 treatment immediately after ligation and the remaining 29 received PBS injections. Treatment was given intracardiac with thymosin β4 (200 ng in 10 μl collagen) or with 10 μl of collagen; intraperitoneally with thymosin β4 (150 μg in 300 μl PBS) or with 300 μl of PBS; or by both intracardiac and intraperitoneal injections. Intraperitoneal injections were given every 3 days until mice were killed. Doses were based on previous studies of thymosin β4 biodistribution (Mora et al., 1997). Hearts were removed, weighed and fixed for histological sectioning. Additional mice were operated on in a similar fashion for studies 0.5, 1, 3, 6 and 11 days after ligation.
Analysis of cardiac function by echocardiography. Echocardiograms to assess systolic function were performed using M-mode and two-dimensional measurements as described previously (Garner et al., 2003). The measurements represented the average of six selected cardiac cycles from at least two separate scans performed in random-blind fashion with papillary muscles used as a point of reference for consistency in level of scan. End diastole was defined as the maximal left ventricle diastolic dimension and end systole was defined as the peak of posterior wall motion. Single outliers in each group were omitted for statistical analysis. Fractional shortening (FS), a surrogate of systolic function, was calculated from left ventricle dimensions as follows: FS=((EDD−ESD)/EDD)×100%. Ejection fraction (EF) was calculated from two-dimensional images.
Calculation of scar volume. Scar volume was calculated using six sections through the heart of each mouse using Openlab 3.03 software (Improvision) similar to that previously described (Balsam et al., 2004). Percent area of collagen deposition was measured on each section in a blinded fashion and averaged for each mouse.
Statistical analyses. Statistical calculations were performed using a standard t-test of variables with 95% confidence intervals.
Thymosin β4 promotes cell survival after myocardial infarction and improves cardiac function. Because of the effects of thymosin β4 on cardiac cells in vitro, the inventors tested whether thymosin β4 might aid in cardiac repair in vivo after myocardial damage. The inventors created myocardial infarctions in 58 adult mice by coronary artery ligation and treated half with systemic, intracardiac, or systemic plus intracardiac thymosin β4 immediately after ligation and the other half with PBS (FIGS. 4A-E). All 45 mice that survived 2 weeks later were interrogated for cardiac function by random-blind ultrasonography at 2 and 4 weeks after infarction by multiple measurements of cardiac contraction (FIGS. 4A-D).
TUNEL-positive cells that were also myocytes were rare in the thymosin β4 group but abundant in the control hearts. […] Thus, the decreased scar volume and preserved function of thymosin-β4-treated mice were probably due to early preservation of myocardium after infarction through the effects of thymosin β4 on survival of cardiomyocytes.

[5] = test system: ILK, phosphorylated Akt-S 473; experiment: Western blot on heart lysates after coronary ligation; format: in vivo, mouse
Source text: as §3
Similar to cultured cells, the level of ILK protein was increased in heart lysates of mice treated with thymosin β4 after coronary ligation compared with PBS-treated mice (FIG. 5N).

[6] = compared to control cells, data not shown

T1 sequence (Q99JW4 whole entry): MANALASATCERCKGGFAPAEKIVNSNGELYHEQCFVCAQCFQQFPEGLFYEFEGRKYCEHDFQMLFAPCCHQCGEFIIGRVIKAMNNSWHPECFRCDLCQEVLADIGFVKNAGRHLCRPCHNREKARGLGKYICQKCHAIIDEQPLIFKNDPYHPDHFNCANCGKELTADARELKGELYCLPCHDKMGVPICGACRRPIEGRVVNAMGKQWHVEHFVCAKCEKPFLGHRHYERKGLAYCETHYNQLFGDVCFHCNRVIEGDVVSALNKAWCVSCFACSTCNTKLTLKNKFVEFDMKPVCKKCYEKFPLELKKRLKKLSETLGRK

C3 transferase [reference compound]
effect on thymosin β4-induced ILK activation ([1]; COS1 or C2C12 cells, F-actin polymerization inhibited, data not shown): neither intervention affected the ILK activation

thymosin β4
myocardial cell migration away from the explant ([2]; E11.5 outflow tract explants on collagen, 30 ng per 300 μl thymosin β4 vs PBS, P<0.0001): large number of spontaneously beating, cardiac muscle actin-positive cells that migrated away from the explant | cell death of migrating cells (TUNEL assay) [2, 6]: No significant difference | proliferative rate of migrating cells (phospho-histone H3 immunostaining) [2, 6]: No significant difference | time for which rhythmically contracting myocytes were visible ([3]; controls beat for up to 2 weeks): up to 28 days | survival of neonatal cardiomyocytes in primary culture ([3]; controls typically survive approximately 1 to 2 weeks): survived significantly longer | migrational distance of neonatal cardiomyocytes ([3]; laminin-coated glass, vs PBS control, P<0.05): significantly increased | rate of beating ([3]; versus 50 in control, P<0.02): 95 beats per minute | interaction with PINCH (phage display, ELISA) (PINCH; in the absence of actin, N-terminus fused to affi-gel beads): interacted | co-precipitation with PINCH (PINCH; transfected cultured cells): co-precipitated | strength of interaction of ILK with thymosin β4 in the common complex (ILK; immunoprecipitation of PINCH, ILK and thymosin β4): weaker than with PINCH | co-precipitation with ILK (ILK; transfected cultured cells): co-precipitated | ILK protein levels (western) ([1]; C2C12 cells): modest increase | total Akt protein ([1]; C2C12 cells): unchanged | phosphorylation of Akt at serine 473 ([1]; C2C12 cells, phospho-specific antibody): increased phosphorylation | ILK detection around the cell edges by immunocytochemistry ([1]; embryonic heart explants or C2C12 myoblasts, synthetic protein 10 ng per 100 μl or expressing plasmid): markedly enhanced | cardiomyocyte proliferation or death ([4]; 3, 6, 11 or 14 days after coronary ligation, data not shown): did not detect significant | cell death by TUNEL assay in cardiomyocytes ([4]; 24 h after ligation): marked decrease | TUNEL-positive cells that were also myocytes ([4]; 24 h after ligation, abundant in control hearts): rare | ejection fraction ([4]; 3 days after infarction, intracardiac treatment, control 44.7±8.4%, P<0.02): 64.2±6.69% | left ventricle fractional shortening ([4]; 3 days after infarction, intracardiac treatment, n=4, 95% confidence interval, control 28.8±2.26%, P<0.02): 39.2±2.34% | cardiac dilation (end diastolic and end systolic dimensions) ([4]; after infarction, EDD and ESD significantly higher in control group): decreased cardiac dilation | mean ejection fraction ([4]; four weeks after coronary ligation, n=23, 95% confidence interval, control 28.2±2.5%, P<0.0001): 57.7±3.2% | mean left ventricular fractional shortening ([4]; four weeks after infarction, n=23, 95% confidence intervals, control 23.2±1.2%, P<0.0001): 37.2±1.8% | scar volume ([4]; six levels of sections through left ventricle, subset of mice, P<0.05): significant reduction | degree of functional improvement, intraperitoneal versus intracardiac administration ([4]; systemic i.p. 150 μg vs local 200 ng within the infarct): not statistically different | size of scar (trichrome stain) ([4]; three levels of section, all treated mice): reduced | number of c-kit, Sca-1 or Abcg2 positive cardiomyocytes ([4]; treated vs untreated hearts, data not shown): failed to detect any differences | size of scar, systemic versus local delivery ([4]; trichrome stain): not different | improvement in cardiac fractional shortening ([4]; versus control, four weeks): greater than 60% | improvement in ejection fraction ([4]; versus control, four weeks): > 100% | level of ILK protein in heart lysates ([5]; compared with PBS-treated mice): increased | amount of phosphorylated Akt-S 473 in heart lysates ([5]; phospho-specific antibodies): elevation
